Results: patent US20080200448A1, “New Pyridine Analogues VIII 518” (ASTRAZENECA AB, priority 2007, published 2008)
Like-named read-outs stand apart in the source and are kept apart here.

Target: T1, P2Y12 receptor (Homo sapiens, UniProt Q9H244)
T1 construct: expressed in transfected cells; host or cells: CHO cells (membrane preparation)
Assay: Functional inhibition of 2-Me-S-ADP induced P2Y12 signalling (35S-GTPγS binding, cell membranes)
Assay type: biochemical
Protocol: Functional inhibition of- the P2Y12 receptor can be measured by in vitro assays using cell membranes from P2Y12 transfected CHO-cells, the methodology is indicated below.
Functional inhibition of 2-Me-S-ADP induced P2Y12 signalling: 5 μg of membranes were diluted in 200 μl of 200 mM NaCl, 1 mM MgCl2, 50 mM HEPES (pH 7.4), 0.01% BSA, 30 μg/ml saponin and 10 μM GDP. To this was added an EC80 concentration of agonist (2-methyl-thio-adenosine diphosphate), the required concentration of test compound and 0.1 μCi ^35S-GTPγS. The reaction was allowed to proceed at 30° C. for 45 min. Samples were then transferred on to GF/B filters using a cell harvester and washed with wash buffer (50 mM Tris (pH 7.4), 5 mM MgCl2, 50 mM NaCl). Filters were then covered with scintilant and counted for the amount of ^35S-GTPγS retained by the filter. Maximum activity was that determined in the presence of the agonist and minimum activity in the absence of the agonist following subtraction of the value determined for non-specific activity. The effect of compounds at various concentrations was plotted according to the equation
y=A+((B−A)/(1+((C/x)̂D)))
and IC50 estimated where A is the bottom plateau of the curve i.e. the final minimum y value B is the top of the plateau of the curve i.e. the final maximum y value C is the x value at the middle of the curve. This represents the log EC50 value when A+B=100 D is the slope factor. x is the original known x values. Y is the original known y values.

[1] = 35S-GTPγS assay, membranes, EC80 concentration of 2-methyl-thio-adenosine diphosphate, 30° C. for 45 min, read-out: GTPγS (IC50 μM)

T1 sequence (Q9H244 whole entry): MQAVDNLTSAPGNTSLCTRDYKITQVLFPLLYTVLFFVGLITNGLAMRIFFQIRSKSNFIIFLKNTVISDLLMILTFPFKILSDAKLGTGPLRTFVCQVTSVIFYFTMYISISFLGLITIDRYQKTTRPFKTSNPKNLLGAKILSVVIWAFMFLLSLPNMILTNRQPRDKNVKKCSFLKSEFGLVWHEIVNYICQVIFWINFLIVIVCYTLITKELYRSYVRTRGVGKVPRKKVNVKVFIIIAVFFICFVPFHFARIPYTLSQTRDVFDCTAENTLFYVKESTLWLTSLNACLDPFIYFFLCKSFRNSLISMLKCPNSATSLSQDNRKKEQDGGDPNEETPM

Compound | IC50 [1] | IC50 (functional inhibition of 2-Me-S-ADP induced P2Y12 signalling, membranes from P2Y12 transfected CHO-cells, EC80 concentration of agonist, read-out: IC50)
CCOC(=O)c1cc(C#N)c(N2CC(C(=O)NS(=O)(=O)Cc3ccccc3)C2)nc1CSCCNC(C)=O [Example 32, Ethyl 2-{[(2-acetamidoethyl)thio]methyl}-6-{3-[(benzylsulfonyl)carbamoyl]azetidin-1-yl}-5-cyanonicotinate] | 0.081 µM | –
CCOC(=O)c1cc(C#N)c(N2CC(C(=O)NS(=O)(=O)Cc3ccccc3)C2)nc1CSCC [Example 30, Ethyl 6-{3-[(benzylsulfonyl)carbamoyl]azetidin-1-yl}-5-cyano-2-[(ethylthio)methyl]nicotinate] | 0.106 µM | –
CCOC(=O)c1cc(C#N)c(N2CCC(C(=O)NS(=O)(=O)Cc3ccccc3)CC2)nc1CSCCO [Example 28, Ethyl 6-{4-[(benzylsulfonyl)carbamoyl]piperidin-1-yl}-5-cyano-2-{[(2-hydroxyethyl)thio]methyl}nicotinate] | 0.037 µM | –
CCOC(=O)c1cc(C#N)c(N2CCC(C(=O)NS(=O)(=O)CC3CCCC3)CC2)nc1CN1CCCC1=O [Example 36, Ethyl 5-cyano-6-(4-{[(cyclopentylmethyl)sulfonyl]carbamoyl}piperidin-1-yl)-2-[(2-oxopyrrolidin-1-yl)methyl]nicotinate] | 0.017 µM | –
CCOC(=O)c1cc(C#N)c(N2CCC(C(=O)NS(=O)(=O)CC3CCC(C)CC3)CC2)nc1CN1CCCC1=O (stereo not shown) [Example 37, Ethyl 5-cyano-6-[4-({[(4-methylcyclohexyl)methyl]sulfonyl}carbamoyl)piperidin-1-yl]-2-[(2-oxopyrrolidin-1-yl)methyl]nicotinate] | 0.03 µM | –
CCOC(=O)c1cc(C#N)c(N2CCC(C(=O)NS(=O)(=O)Nc3ccccc3)CC2)nc1CN1CCCC1=O [Example 55, Ethyl 6-{4-[(anilinosulfonyl)carbamoyl]piperidin-1-yl}-5-cyano-2-[(2-oxopyrrolidin-1-yl)methyl]nicotinate] | 0.03 µM | –
CCOC(=O)c1cc(C#N)c(N2CCC(C(=O)NS(=O)(=O)Cc3ccc(C(F)(F)F)cc3)CC2)nc1CN1CCCCC1=O [Example 59, Ethyl 5-cyano-2-[(2-oxopiperidin-1-yl)methyl]-6-[4-({[4-(trifluoromethyl)benzyl]sulfonyl}carbamoyl)piperidin-1-yl]nicotinate] | 0.029 µM | –
CCOC(=O)c1cc(C#N)c(N2CCC(C(=O)NS(=O)(=O)Cc3ccc(F)cc3Cl)CC2)nc1CN1CCCC1=O [Example 43, Ethyl 6-(4-{[(2-chloro-4-fluorobenzyl)sulfonyl]carbamoyl}piperidin-1-yl)-5-cyano-2-[(2-oxopyrrolidin-1-yl)methyl]nicotinate] | 0.018 µM | –
CCOC(=O)c1cc(C#N)c(N2CCC(C(=O)NS(=O)(=O)Cc3ccc(C)cc3)CC2)nc1CN1CCCCC1=O [Example 63, Ethyl 5-cyano-6-(4-{[(4-methylbenzyl)sulfonyl]carbamoyl}piperidin-1-yl)-2-[(2-oxopiperidin-1-yl)methyl]nicotinate] | 0.014 µM | –
CCOC(=O)c1cc(C#N)c(N2CCC(C(=O)NS(=O)(=O)Cc3ccccc3)CC2)nc1CN1C(=O)CCC1=O [Example 15, Ethyl 6-{4-[(benzylsulfonyl)carbamoyl]piperidin-1-yl}-5-cyano-2-[(2,5-dioxopyrrolidin-1-yl)methyl]nicotinate] | 0.017 µM | –
CC(C)OC(=O)c1cc(C#N)c(N2CCC(C(=O)NS(=O)(=O)Cc3ccc(F)cc3F)CC2)nc1CN1CCCC1=O [Example 46, Isopropyl 5-cyano-6-(4-{[(2,4-difluorobenzyl)sulfonyl]carbamoyl}piperidin-1-yl)-2-[(2-oxopyrrolidin-1-yl)methyl]nicotinate] | 0.021 µM | –
CCOC(=O)c1cc(C#N)c(N2CCC(C(=O)NS(=O)(=O)Nc3ccccc3)CC2)nc1CN1CCCCC1=O [Example 64, Ethyl 6-{4-[(anilinosulfonyl)carbamoyl]piperidin-1-yl}-5-cyano-2-[(2-oxopiperidin-1-yl)methyl]nicotinate] | 0.14 µM | –
CCOC(=O)c1cc(C#N)c(N2CC(C(=O)NS(=O)(=O)Cc3ccccc3)C2)nc1CSCCO [Example 31, Ethyl 6-{3-[(benzylsulfonyl)carbamoyl]azetidin-1-yl}-5-cyano-2-{[(2-hydroxyethyl)thio]methyl}nicotinate] | 0.066 µM | –
CCOC(=O)c1cc(C#N)c(N2CCC(C(=O)NS(=O)(=O)Cc3ccccc3)CC2)nc1CN(C)C [Example 4, Ethyl 6-{4-[(benzylsulfonyl)carbamoyl]piperidin-1-yl}-5-cyano-2-[(dimethylamino)methyl]nicotinate] | 0.282 µM | 0.28 µM

Results, then the molecule that gave them:

IC50 [1] | IC50 (functional inhibition of 2-Me-S-ADP induced P2Y12 signalling, membranes from P2Y12 transfected CHO-cells, EC80 concentration of agonist, read-out: IC50) | Compound
> 3.3 µM | – | CC(C)OC(=O)c1cc(C#N)c(N2CCC(C(=O)NS(=O)(=O)CC3CCOCC3)CC2)nc1CN1CCCC1=O [Example 73, Isopropyl 5-cyano-2-[(2-oxopyrrolidin-1-yl)methyl]-6-(4-{[(tetrahydro-2H-pyran-4-ylmethyl)sulfonyl]carbamoyl}piperidin-1-yl)nicotinate]
0.035 µM | – | CCOC(=O)c1cc(C#N)c(N2CCC(C(=O)NS(=O)(=O)Cc3ccccc3)CC2)nc1CSCC(=O)O [Example 115, ({[6-{4-[(Benzylsulfonyl)carbamoyl]piperidin-1-yl}-5-cyano-3-(ethoxycarbonyl)pyridin-2-yl]methyl}thio)acetic acid]
0.035 µM | – | CCOC(=O)c1cc(C#N)c(N2CCC(C(=O)NS(=O)(=O)Cc3ccccc3)CC2)nc1CSc1nccs1 [Example 117, Ethyl 6-{4-[(benzylsulfonyl)carbamoyl]piperidin-1-yl}-5-cyano-2-[(1,3-thiazol-2-ylthio)methyl]nicotinate]
0.194 µM | – | CCOC(=O)c1cc(Cl)c(N2CCC(C(=O)NS(=O)(=O)CC3CCCCC3)CC2)nc1CN1CCCC1=O [Example 94, Ethyl 5-chloro-6-(4-{[(cyclohexylmethyl)sulfonyl]carbamoyl}piperidin-1-yl)-2-[(2-oxopyrrolidin-1-yl)methyl]nicotinate]
0.033 µM | – | CCOC(=O)c1cc(Cl)c(N2CCC(C(=O)NS(=O)(=O)Cc3ccc(F)cc3F)CC2)nc1CN1CCCC1=O [Example 89, Ethyl 5-chloro-6-(4-{[(2,4-difluorobenzyl)sulfonyl]carbamoyl}piperidin-1-yl)-2-[(2-oxopyrrolidin-1-yl)methyl]nicotinate]
0.028 µM | – | CC(C)OC(=O)c1cc(C#N)c(N2CCC(C(=O)NS(=O)(=O)CC3CCCCC3)CC2)nc1CN1CCCC1=O [Example 82, Isopropyl 5-cyano-6-(4-{[(cyclohexylmethyl)sulfonyl]carbamoyl}piperidin-1-yl)-2-[(2-oxopyrrolidin-1-yl)methyl]nicotinate]
0.178 µM | – | CC(C)OC(=O)c1cc(Cl)c(N2CCC(C(=O)NS(=O)(=O)Cc3ccccc3)CC2)nc1CN1CCCC1=O [Example 96, Isopropyl 6-{4-[(benzylsulfonyl)carbamoyl]piperidin-1-yl}-5-chloro-2-[(2-oxopyrrolidin-1-yl)methyl]nicotinate]
0.033 µM | – | CCOC(=O)c1cc(C#N)c(N2CCC(C(=O)NS(=O)(=O)Cc3ccc(SC(F)(F)F)cc3)CC2)nc1CN1CCCC1=O [Example 66, Ethyl 5-cyano-2-[(2-oxopyrrolidin-1-yl)methyl]-6-{4-[({4-[(trifluoromethyl)thio]benzyl}sulfonyl)carbamoyl]piperidin-1-yl}nicotinate]
0.056 µM | – | CCOC(=O)CCc1nc(N2CCC(C(=O)NS(=O)(=O)Cc3ccccc3)CC2)c(C#N)cc1C(=O)OCC [Example 107, Ethyl 6-{4-[(benzylsulfonyl)carbamoyl]piperidin-1-yl}-5-cyano-2-(3-ethoxy-3-oxopropyl)nicotinate]
0.011 µM | – | CCOC(=O)CSc1nc(N2CCC(C(=O)NS(=O)(=O)Cc3ccccc3)CC2)c(C#N)cc1C(=O)OCC [Example 126, Ethyl 6-{4-[(benzylsulfonyl)carbamoyl]piperidin-1-yl}-5-cyano-2-[(2-ethoxy-2-oxoethyl)thio]nicotinate]
0.081 µM | – | CCOC(=O)c1cc(Cl)c(N2CCC(C(=O)NS(=O)(=O)Cc3ccc(OC)cc3)CC2)nc1CN1CCCC1=O [Example 88, Ethyl 5-chloro-6-(4-{[(4-methoxybenzyl)sulfonyl]carbamoyl}piperidin-1-yl)-2-[(2-oxopyrrolidin-1-yl)methyl]nicotinate]
0.072 µM | – | CCOC(=O)CSc1nc(N2CCC(C(=O)NS(=O)(=O)Cc3ccc(F)cc3Cl)CC2)c(C#N)cc1C(=O)OCC [Example 108, Ethyl 6-(4-{[(2-chloro-4-fluorobenzyl)sulfonyl]carbamoyl}piperidin-1-yl)-5-cyano-2-[(2-ethoxy-2-oxoethyl)thio]nicotinate]
4.53 µM | – | CCSC(=O)c1cc(C#N)c(N2CCC(C(=O)NS(=O)(=O)Cc3ccc(C)cc3)CC2)nc1CN1CCCC1=O [Example 98, S-Ethyl 5-cyano-6-(4-{[(4-methylbenzyl)sulfonyl]carbamoyl}piperidin-1-yl)-2-[(2-oxopyrrolidin-1-yl)methyl]pyridine-3-carbothioate]
